Read-outs that look alike come from different tables or passages of the source.
What was measured:
Assay type in all cases: in vivo
[1] = tested on: Erysiphe graminis tritici (powdery mildew); test: Test 1 greenhouse foliar spray screen, powdery mildew on wheat; settings: for POWD MDEW: disease control rating, foliar spray on wheat, 400 ppm (+++ at 100 ppm); for pest or weed control at 400 ppm: Blumeria graminis, foliar, Test 1, foliar spray on wheat, disease control rating at 400 ppm / 100 ppm, read-out: POWD MDEW
[2] = tested on: Pyricularia oryzae (rice blast); test: whole plant or invertebrate; settings: for RICE BLAST: disease control rating, foliar spray on rice, 400 ppm (+++ at 100 ppm); for pest or weed control at 400 ppm: Pyricularia oryzae, foliar, read-out: RICE BLAST, Test 1, foliar spray on rice, disease control rating at 400 ppm / 100 ppm
[3] = tested on: Puccinia recondita tritici (leaf rust); test: Test 1 greenhouse foliar spray screen, leaf rust on wheat; settings: for LEAF RUST: disease control rating, foliar spray on wheat, 400 ppm (+++ at 100 ppm); for pest or weed control at 400 ppm: Puccinia recondita, foliar, Test 1, foliar spray on wheat, disease control rating at 400 ppm / 100 ppm
[4] = tested on: Botrytis cinerea (gray mold); test: Test 1 greenhouse foliar spray screen, gray mold on grape berries; settings: for GRAY MOLD: disease control rating, spray on grape berries, 400 ppm (+++ at 100 ppm); for pest or weed control at 400 ppm: Botrytis cinerea, foliar, Test 1, spray on grape berries, disease control rating at 400 ppm / 100 ppm
[5] = tested on: Pseudoperonospora cubensis (downy mildew); test: Test 1 greenhouse foliar spray screen, downy mildew on squash; settings: for DOWN MDEW: disease control rating, foliar spray on squash, 400 ppm (+++ at 100 ppm); for pest or weed control at 400 ppm: Pseudoperonospora cubensis, foliar, Test 1, foliar spray on squash, disease control rating at 400 ppm / 100 ppm, read-out: DOWN MDEW
[6] = tested on: Cercospora beticola (leaf spot); test: Test 1 greenhouse foliar spray screen, leaf spot on sugar beet; settings: for LEAF SPOT: disease control rating, foliar spray on sugar beet, 400 ppm (+++ at 100 ppm); for pest or weed control at 400 ppm: Cercospora beticola, Test 1, foliar spray on sugar beet, disease control rating at 400 ppm / 100 ppm
[7] = tested on: Venturia inaequalis (apple scab); test: Test 1 greenhouse foliar spray screen, apple scab on apple seedling; settings: for APPL SCAB: disease control rating, foliar spray on apple seedling, 400 ppm (+++ at 100 ppm); for pest or weed control at 400 ppm: Venturia inaequalis, Test 1, foliar spray on apple seedling, disease control rating at 400 ppm / 100 ppm, read-out: APPL SCAB
[8] = tested on: Septoria tritici (leaf blotch); test: Test 1 greenhouse foliar spray screen, leaf blotch on wheat; settings: for LEAF BLOT: disease control rating, foliar spray on wheat, 400 ppm (+++ at 100 ppm); for pest or weed control at 400 ppm: Zymoseptoria tritici, Test 1, foliar spray on wheat, disease control rating at 400 ppm / 100 ppm, read-out: LEAF BLOT
[9] = tested on: southern armyworm (Spodopetra eridania Cramer); test: Mite/insect screen, SAW; settings: percent mortality; for mortality at 200 ppm / mortality at 400 ppm: Spodoptera eridania, read-out: SAW RESULTS %
In short: (§1)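 Percent mortality was scored after standard exposure periods, following spraying of leaves to runoff (both surfaces, 10 psi, 1 h drying) with water dilutions of compound in emulsifier-containing acetone/alcohol (50:50). Armyworms received excised treated leaves in dishes.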

[10] = tested on: Twospotted spider mites (Tetranychus urticae Koch); test: Mite/insect screen, SM; settings: for mortality at 200 ppm / mortality at 400 ppm: Tetranychus urticae, read-out: SM RESULTS %; for activity as miticides: summary statement in the description
In short: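 Read-out: percent mortality after standard exposure periods. Test solutions were water dilutions of compound dissolved in acetone/alcohol (50:50) with emulsifier blends; leaves were sprayed to runoff on both surfaces and air-dried for one hour before exposure.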

[11] = tested on: melon aphids (Aphis gossypii Glover); test: Mite/insect screen, MA; settings: percent mortality; for mortality at 200 ppm / mortality at 400 ppm: Aphis gossypii, read-out: MA RESULTS %
In short: as §1

corn rootworm = test: Mite/insect screen, CRW; settings: percent mortality; for mortality at 12 ppm / mortality at 24 ppm: read-out: CRW RESULTS %
In short: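 Corn rootworm mortality (%) was evaluated following standard exposure times. Test material was emulsified by dissolution in acetone/alcohol (1:1) containing sulfonate/nonionic emulsifier blends TOXIMUL R (23 g/L) and TOXIMUL S (13 g/L), and water-diluted to the indicated doses.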

[12] = percent mortality, SAW, SM & MA RATE 200 PPM
[13] = foliar, rate 200 ppm, foliar spray on squash
[14] = foliar, rate 400 ppm, foliar spray on squash
[15] = foliar, percent mortality, rate 200 ppm, foliar spray on squash
[16] = foliar, percent mortality, rate 400 ppm, foliar spray on squash

SMILES	POWD MDEW [1]	RICE BLAST [2]	LEAF RUST [3]	GRAY MOLD [4]	DOWN MDEW [5]	LEAF SPOT [6]	APPL SCAB [7]	LEAF BLOT [8]	mortality at 200 ppm ([9]; SAW, SM & MA RATE 200 PPM) [%]	mortality at 200 ppm [10, 12] [%]	mortality at 200 ppm ([11]; SAW, SM & MA RATE 200 PPM) [%]	mortality at 12 ppm (corn rootworm; CRW RATE 12.00 PPM) [%]	pest or weed control at 400 ppm [1] [%]	pest or weed control at 400 ppm [2] [%]	pest or weed control at 400 ppm [3] [%]	pest or weed control at 400 ppm [4] [%]	pest or weed control at 400 ppm [5] [%]	pest or weed control at 400 ppm [6] [%]	pest or weed control at 400 ppm [7] [%]	pest or weed control at 400 ppm [8] [%]	also measured
Fc1cc(F)c2nccc(NCCc3ccccc3)c2c1 [Example 7, 6,8-difluoro-N-(2-phenylethyl)-4-quinolinamine]	+ (20-89% control at 400 ppm)	+ (20-89% control at 400 ppm)	+++ (90-100% control at 100 ppm)	- (0-19% control at 400 ppm)	+++ (90-100% control at 100 ppm)	- (0-19% control at 400 ppm)	- (0-19% control at 400 ppm)	+++ (90-100% control at 100 ppm)	0	0	0	0	–	–	–	–	–	–	–	–	–
COc1cc(CCNc2ccnc3ccccc23)cc(OC)c1 [Example 67, N-[2-(3,5-dimethoxyphenyl)ethyl]-4-quinolinamine]	- (0-19% control at 400 ppm)	+ (20-89% control at 400 ppm)	+ (20-89% control at 400 ppm)	- (0-19% control at 400 ppm)	++ (90-100% control at 400 ppm)	+ (20-89% control at 400 ppm)	- (0-19% control at 400 ppm)	- (0-19% control at 400 ppm)	0	0	0	0	–	–	–	–	–	–	–	–	–
Clc1ccc2c(OCCc3ccc(-c4ccccc4)cc3)ccnc2c1 [Example 230, 7-chloro-4-[2-(1,1'-biphenyl)-4-yl-ethoxy]quinoline]	–	–	–	–	–	–	–	–	–	–	–	–	90 to 100	0 to 19	20 to 89	0 to 19	0 to 19	0 to 19	0 to 19	0 to 19	mortality at 200 ppm [9, 13]: 0%; mortality at 400 ppm [9, 14]: 0%; mortality at 200 ppm [10, 15]: 100%; mortality at 400 ppm [10, 16]: 80%; activity as miticides [10]: particularly excellent activity; mortality at 200 ppm [11, 13]: 90%; mortality at 400 ppm [11, 14]: 0%; mortality at 12 ppm (corn rootworm; CRW rate 12.00 ppm): 0%; mortality at 24 ppm (corn rootworm; CRW rate 24.00 ppm): 0%
Fc1cccc2c(NCCc3cccc4ccccc34)ccnc12 [Example 158, 8-fluoro-N-[2-(1-naphthyl)ethyl]-4-quinolinamine]	+ (20-89% control at 400 ppm)	+++ (90-100% control at 100 ppm)	+++ (90-100% control at 100 ppm)	- (0-19% control at 400 ppm)	+++ (90-100% control at 100 ppm)	+ (20-89% control at 400 ppm)	- (0-19% control at 400 ppm)	+++ (90-100% control at 100 ppm)	0	0	0	0	–	–	–	–	–	–	–	–	–
Fc1cccc2c(NCCCCc3ccc(Cl)cc3)ccnc12 [Example 140, 8-fluoro-N-[4-(4-chlorophenyl)butyl]-4-quinolinamine]	+ (20-89% control at 400 ppm)	+++ (90-100% control at 100 ppm)	+++ (90-100% control at 100 ppm)	- (0-19% control at 400 ppm)	+++ (90-100% control at 100 ppm)	+++ (90-100% control at 100 ppm)	+ (20-89% control at 400 ppm)	+++ (90-100% control at 100 ppm)	0	0	0	0	–	–	–	–	–	–	–	–	mortality at 400 ppm ([9]; SAW, SM & MA RATE 400 PPM): 60%; mortality at 400 ppm ([10]; percent mortality, SAW, SM & MA RATE 400 PPM): 0%; mortality at 400 ppm ([11]; SAW, SM & MA RATE 400 PPM): 0%; mortality at 24 ppm (corn rootworm; CRW RATE 24.00 PPM): 0%
c1ccc2c(NCCc3ccsc3)ccnc2c1 [Example 148, N-[2-(3-thienyl)ethyl]-4-quinolinamine]	- (0-19% control at 400 ppm)	+ (20-89% control at 400 ppm)	+ (20-89% control at 400 ppm)	- (0-19% control at 400 ppm)	++ (90-100% control at 400 ppm)	+ (20-89% control at 400 ppm)	- (0-19% control at 400 ppm)	- (0-19% control at 400 ppm)	0	0	0	0	–	–	–	–	–	–	–	–	–
c1ccc2cc(CCNc3ccnc4ccccc34)ccc2c1 [Example 152, N-[2-(2-naphthyl)ethyl]-4-quinolinamine]	++ (90-100% control at 400 ppm)	+++ (90-100% control at 100 ppm)	++ (90-100% control at 400 ppm)	- (0-19% control at 400 ppm)	+++ (90-100% control at 100 ppm)	+++ (90-100% control at 100 ppm)	- (0-19% control at 400 ppm)	+++ (90-100% control at 100 ppm)	0	0	0	0	–	–	–	–	–	–	–	–	SAW RESULTS % ([9]; SAW, SM & MA RATE 200 PPM): 0%; SM RESULTS % [10, 12]: 0%; MA RESULTS % ([11]; SAW, SM & MA RATE 200 PPM): 0%; CRW RESULTS % (corn rootworm; CRW RATE 12.00 PPM): 0%
Fc1cccc2c(CCCc3cccc(C(F)(F)F)c3)ccnc12 [Example 259, 8-fluoro-4-[3-[3-(trifluoromethyl)phenyl]propyl]quinoline]	–	–	–	–	–	–	–	–	–	–	–	–	20 to 89	90 to 100	90 to 100	20 to 89	90 to 100	0 to 19	90 to 100	90 to 100	mortality at 200 ppm [9, 13]: 0%; mortality at 400 ppm [9, 14]: 0%; mortality at 200 ppm [10, 15]: 100%; mortality at 400 ppm [10, 16]: 80%; activity as miticides [10]: particularly excellent activity; mortality at 200 ppm [11, 13]: 90%; mortality at 400 ppm [11, 14]: 80%; mortality at 12 ppm (corn rootworm; CRW rate 12.00 ppm): 0%; mortality at 24 ppm (corn rootworm; CRW rate 24.00 ppm): 0%
Fc1ccc(CCOc2ccnc3c(F)cccc23)cc1 [Example 222, 8-fluoro-4-[2-(4-fluorophenyl)ethoxy]quinoline]	–	–	–	–	–	–	–	–	–	–	–	–	20 to 89	20 to 89	90 to 100	0 to 19	90 to 100	20 to 89	90 to 100	90 to 100	mortality at 200 ppm [9, 13]: 0%; mortality at 400 ppm [9, 14]: 0%; mortality at 200 ppm [10, 15]: 0%; mortality at 400 ppm [10, 16]: 0%; mortality at 200 ppm [11, 13]: 50%; mortality at 400 ppm [11, 14]: 40%; mortality at 12 ppm (corn rootworm; CRW rate 12.00 ppm): 0%; mortality at 24 ppm (corn rootworm; CRW rate 24.00 ppm): 0%
